Among the data in PubChem BioAssay (NCI) are GI50 and TGI values, retold here.

Test in all cases: NCI anticancer screen, dose series, 48 h
Assay [1] deals with T-47D breast.
Assay [2] relates to MDA-MB-231 breast.
Assay [3] deals with BT-549 breast.
Assay [4] relates to NCI-H226 lung.
The test system of assay [5] is HS 578T breast.
The test system of assay [6] is OVCAR-5 ovarian.
For assay [7], the system named is OVCAR-4 ovarian.
Assay [8] concerns MDA-N.
For assay [9], the system named is DMS 273 small cell lung.
Assay [10] has as its system HOP-18 NSCLC.
Assay [11] relates to DLD-1 colon.
The subject of assay [12] is M19-MEL melanoma.
The test system of assay [13] is DMS 114 small cell lung.

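Briefly, cells in 96-well plates were exposed to five compound concentrations for 48 h, and endpoints were estimated by linear interpolation. GI50 = concentration required for 50% inhibition of growth. TGI denotes the concentration required for complete inhibition of growth.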

As for `COc1cc(OC)cc(-c2n/c(=C\c3c(O)[nH]c4ccc(OC)cc34)cc3c2=Nc2ccccc2-3)c1`, the GI50 in assay [1] was 24.6 µM; in [2] it was 1.56 µM; in assay [3], 2.19 µM; in assay [4], 26.6 µM; in assay [5] it was 16.1 µM; in assay [6], 70.2 µM. The GI50 in assay [7] is 2.21 µM. Also, the TGI in [1] was 75.8 µM; in assay [2] it was 3.26 µM; in assay [3], 4.7 µM; in assay [4], 56.9 µM; in assay [5], 47.7 µM; in assay [6] it was greater than 100 µM. The same molecule gave a TGI in [7] of 5.21 µM.

For `NC(CCOCCP(=O)(O)O)C(=O)O` (stereo unspecified), the TGI in assay [1], in assay [2], in [3], in assay [5], in assay [8] and in assay [6] was greater than 100 µM in each case. The molecule also displayed a TGI in assay [7] greater than 100 µM.

Consider `COc1c2c(c3ccccc3c1O)C1C=CC2C1` (stereo unspecified), for which the TGI in assay [9] is 30.3 µM; in assay [10] it was 28.5 µM; in assay [11] it was 31.6 µM; in assay [6], 33.9 µM; in assay [7], 28.7 µM; in assay [12], 5.46 µM. In addition, the TGI in assay [13] amounted to 19.6 µM.

As to `O=C(N/N=C\c1ccc(N(CCCl)CCCl)cc1[N+](=O)[O-])c1cccnc1`, the GI50 in assay [1], in assay [2], in [3], in assay [4], in assay [5] and in assay [6] was greater than 100 µM in each case. Also, the TGI in assay [1], in assay [2], in assay [3], in assay [4], in assay [5] and in [6] was greater than 100 µM in each case.

Take `CCN(CC)CCN1C(=O)c2c(c3c4ccccc4[nH]c3c3ccc4ccccc4c23)C1=O`: the figures for the GI50 in assay [1], in assay [6] and in [7] were 13 µM, 1.64 µM and 1.58 µM, respectively. Further, the TGI is 38.9 µM in assay [1], 3.09 µM in assay [6] and 2.96 µM in assay [7].

Consider `COC1=CC(=O)CC(C)C12Oc1c(Cl)c(OC)cc(OC)c1C2=O` (stereo unspecified), for which the TGI was greater than 100 µM in [1]; 32.5 µM in [2]; greater than 89 µM in [3]; greater than 100 µM in assay [4]; greater than 80 µM in assay [5]; greater than 100 µM in assay [6]. Besides, in assay [7], the TGI was greater than 100 µM.

As for `C=C1C(=O)O[C@@H]2[C@H](O)[C@@H](C)[C@@H]3C=CC(=O)[C@@]3(C)[C@@H](OC(=O)/C(C)=C/C)[C@H]12`, the TGI came out at 3.56 µM in [9]; 4.75 µM in assay [10]; 8.97 µM in assay [4]; 1.31 µM in assay [11]; 8.31 µM in assay [6]; 3.05 µM in [7]. Further, the TGI in [12] turned out to be 1.22 µM; in assay [13], 3.63 µM.

With `Cc1ccc(C2=C(C#N)C(N)OC3=C2COc2ccccc23)cc1` (stereo unspecified), the TGI is greater than 100 µM in [2]; greater than 100 µM in assay [3]; greater than 100 µM in assay [4]; greater than 100 µM in assay [8]; 40.7 µM in assay [7].
